In patent publication US20230158042A1, “COMBINATION CANCER THERAPY WITH PENTAAZA MACROCYCLIC RING COMPLEX AND HORMONE THERAPY AGENT” (Galera Labs, LLC, priority 2020, published 2023):

Assays:
[1] = system: Sirt3^-/--MT-SIRT3^WT allografts; assay: Sirt3-/--MT-SIRT3^WT mammary allograft tumor growth (bioluminescence); assay type: in vivo; conditions: GC4419 by IP every other day for five weeks; compared to control mice
Experimental: FIGS. 29a-29b are plots showing that the growth of murine mammary allograft tumors is inhibited by exposure to the MnSOD mimic GC4419 much more in cells without expression of deacetylation competent SIRT3. […] Mice were subsequently injected with luciferin potassium (120 mg/kg) every week and signal intensity will be quantified. Error bars represent one SD from the mean.
These cell lines were subsequently infected with and selected to express either a SIRT3 wild-type (Sirt3^-/--MT-SIRT3^WT) or deacetylation activity null (Sirt3^-/--MT-SIRT3^DN) gene and a lenti-luciferase to assess tumor growth by bioluminescence. Allograft tumor mice were split into four groups: (1) control, untreated Sirt3^-/--MT-SIRT3^DN; (2) GC4419 treated Sirt3^-/--MT-SIRT3^DN; (3) control, untreated Sirt3^-/--MT-SIRT3^WT; and (4) GC4419 treated Sirt3^-/--MT-SIRT3^WT. […] Accordingly, it was shown that the growth of murine mammary allograft tumors is inhibited by pharmacologically mimicking the activity of deacetylated lysine 68 MnSOD with a manganese pentaazamacrocyclic dismutase mimetic much more in tumors without deacetylation competent SIRT3. Further, this supports that selection of tumors displaying an AcK68 signature could increase response to treatment with a MnPAM dismutase mimetic (or other methods) alone or in combination with other therapies.

MCF7-HTR cells = assay: Ki-67 staining in MCF7-HTR cells; assay type: cell-based, human; conditions: 5 µM GC4419 for 5 days
From the text: (§1) With respect to FIG. 16a, the data from FIG. 7i, where MCF7-HTR cells were stained for Ki-67, as well as DAPI, were counted with ImageJ and quantified for average Ki-67 intensity as shown in the bar graph. With respect to FIGS. 16b and 16c, T47D and T47D-HTR cells were stained for Ki-67 as well as DAPI, and particles in the nucleus were counted with ImageJ and quantified for average Ki-67 intensity as shown in the bar graph. In FIGS. 16d and 16e, MCF7-HTR cells, and in FIGS. 16f and 16g, T47D-HTR cells, were treated with 5 µM GC4419 and/or 1 µM 4-hydroxy-Tam for 5 days, and then stained for Ki-67 as well as DAPI. Quantifications of average Ki-67 intensity are shown in the bar graphs. All experiments were done in triplicate. Error bars represent ± 1 SEM. ***p < 0.001. Representative images are shown.
(§2) Cells seeded on glass coverslips were fixed in 4% paraformaldehyde and then blocked with 1% BSA and 10% normal goat serum in 1x PBS. Cells were incubated with anti-Ki-67 (c-bioscience) antibody in 1x PBS followed by incubation with goat anti-rabbit IgG conjugated with Alexa Fluor 647 (Invitrogen) in 1x PBS with 5% goat serum. Cells were washed in 1x PBS, mounted, and imaged with a fluorescence microscope. Fluorescence images were captured using a laser scanning confocal microscope (Nikon A1 R). The paired images in all the figures were collected at the same gain and offset settings. […]

[2] = system: head-and-neck cancer patients; conditions: patients undergoing chemoradiation therapy, Phase 1 trial; cited from earlier work
mice lacking Sirt3 = conditions: IP injection with 2 mg/kg 30 minutes before IR; cited from earlier work
T47D-HTR cells = assay: Ki-67 staining in T47D-HTR cells; assay type: cell-based, human; conditions: 5 µM GC4419 for 5 days
From the text: as §1, §2

MCF7-Cispl-R cells [3] = assay: Cisplatin resistance phenotype of MCF7-Cispl-R cells (clonogenic cell survival); assay type: cell-based, human; conditions: treated with GC4419
Experimental: FIGS. 27a-27c are an image and graphs showing that MnSOD—AcK68/ROS/HIF2α dysregulation directs PanR (multi-therapy resistance to cancer therapeutics). […] In FIG. 27b, ROS was measured in MCF7-Cispl-R cells, compared with MCF7 cells, using an Amplex Red assay. In FIG. 27c, MCF7 and MCF7-MnSOD^K68Q cells were measured by clonogenic cell survival assays, without and with cisplatin exposure, and infected with scrambled (C) or HIF2α shRNA. All experiments were done in triplicate. Error bars are ± 1 SEM. * p < 0.05.
To evaluate clonogenic cell survival by testing cell growth at low density, 500 exponentially growing cells were plated in triplicate in 6-well plates using serial dilution, and the growth of the cells was examined throughout 14 days in regular growth medium. Cells were fixed with 70% ethanol for 5 minutes and then stained with 0.5% crystal violet (in 25% methanol) for 20 minutes. Photos of stained plates were taken, and colonies of more than 50 cells were counted and used to calculate clonogenic survival.

rat model = conditions: cited from earlier work
LNCaP-MnSOD^K68Q cells = assay: Clonogenic cell survival in LNCaP-MnSOD^K68Q cells; assay type: cell-based; conditions: GC4419 20 µM for 5 days, treated with ENZ
Experimental: In FIG. 20a, clonogenic cell survival experiments were done in LNCaP-ENZR cells infected with lenti-MnSOD^K68R or lenti-MnSOD^K68Q, in the presence of ENZ (10 µM). In FIG. 20b, clonogenic survival assays were done in LNCaP cells infected with lenti-MnSOD^WT, lenti-MnSOD^K68R, and lenti-MnSOD^K68Q, and selected with neomycin, and placed in 10 µM of ENZ for 72 hr. Error bars ± 1 SEM. Experiments were done in triplicate. **p < 0.01.
(§3) FIGS. 21a-21b are a chart and graph showing that pharmacologically mimicking the activity of deacetylated lysine 68 MnSOD with a manganese pentaazamacrocyclic dismutase mimetic both inhibited the growth of LNCaP-ENZR tumors and reversed the enzalutamide resistance in LNCaP-ENZR / LNCaP—MnSOD^K68Q cells and tumors. In FIG. 21a, clonogenic cell survival experiments were performed in LNCaP-ENZR (left two bars) and LNCaP—MnSOD^K68Q (right two bars) treated with ENZ, with or without GC4419 (20 µM) for 5 days. […] Tumor volumes were measured three times a week for 46 days. For each group n=10. Error bars ± 1 SEM. All experiments done in triplicate. **p < 0.01.

MCF7-Cispl-R cells [4] = assay: SOX2 and OCT4 levels in cisplatin-resistant MCF7 cells; assay type: cell-based, human; conditions: data not shown
LNCaP-ENZR cells = assay: Clonogenic cell survival in LNCaP-ENZR cells; assay type: cell-based; conditions: GC4419 20 µM for 5 days, in the presence of ENZ
Experimental: as §3

[Cl][Mn][Cl].c1cc2nc(c1)CN[C@H]1CCCC[C@@H]1NCCN[C@H]1CCCC[C@@H]1NC2 [GC4419]
tumor growth [1]: little change in tumor growth
Ki-67 IHC staining (MCF7-HTR cells): decreased Ki-67 IHC staining
oral mucositis [2]: reduce oral mucositis
liver damage (mice lacking Sirt3): attenuated liver damage
Ki-67 IHC staining (T47D-HTR cells): decreased Ki-67 IHC staining
Cispl-R phenotype (MCF7-Cispl-R cells [3]): converted the Cispl-R cells to a sensitive phenotype
VEGFr inhibitor-induced pulmonary disease (rat model): attenuate VEGFr inhibitor-induced pulmonary disease
ENZR phenotype (clonogenic cell survival) (LNCaP-MnSOD^K68Q cells): converted to a sensitive phenotype
SOX2 and OCT4 levels (MCF7-Cispl-R cells [4]): decreased SOX2 and OCT4 levels
tumor cell survival (clonogenic) (LNCaP-ENZR cells): significant decrease in tumor cell survival in the presence of ENZ
